Laboratory results reported in ChEMBL document CHEMBL2429720, “Synthesis, antimicrobial, and cytotoxicity studies of novel sulfur-linked quinolinecoumarin bisheterocycles” (Med Chem Res, 2013).
Converted amounts (≈) assume the structure as drawn.

Tests used:
Staphylococcus aureus [1] = experiment: Antibacterial activity against Staphylococcus aureus ATCC 11632 after 18 to 24 hrs by agar dilution method; format: functional
Staphylococcus aureus [2] = experiment: Antibacterial activity against Staphylococcus aureus ATCC 11632 at 100 ug/disk after 24 hrs by agar disk diffusion method; format: functional; settings: ATCC 11632, 24 h, read-out: DIZ
Escherichia coli [3] = experiment: Antibacterial activity against Escherichia coli ATCC 25922 at 100 ug/disk after 24 hrs by agar disk diffusion method; format: functional; settings: ATCC 25922, 24 h, read-out: DIZ
Candida albicans [4] = experiment: Antifungal activity against Candida albicans ATCC 90028 at 100 ug/disk after 48 hrs by agar disk diffusion method; format: functional; settings: ATCC 90028, 48 h, read-out: DIZ
Candida albicans [5] = experiment: Antifungal activity against Candida albicans ATCC 90028 after 18 to 24 hrs by agar dilution method; format: functional
Escherichia coli [6] = experiment: Antibacterial activity against Escherichia coli ATCC 25922 after 18 to 24 hrs by agar dilution method; format: functional
NIH3T3 = experiment: Cytotoxicity against mouse NIH/3T3 cells after 48 hrs by MTT assay; format: cell-based; settings: NIH3T3, 48 h
Candida albicans [7] = experiment: Antifungal activity against Candida albicans ATCC 90028 at 10 ug/disk after 48 hrs by agar disk diffusion method; format: functional; settings: ATCC 90028, 48 h, read-out: DIZ
Staphylococcus aureus [8] = experiment: microbe, parasite or virus in culture; settings: ATCC 11632, 24 h, read-out: DIZ
Description: Antibacterial activity against Staphylococcus aureus ATCC 11632 at 10 ug/disk after 24 hrs by agar disk diffusion method

Escherichia coli [9] = experiment: microbe, parasite or virus in culture; settings: ATCC 25922, 24 h, read-out: DIZ
Description: Antibacterial activity against Escherichia coli ATCC 25922 at 10 ug/disk after 24 hrs by agar disk diffusion method

Row | SMILES | MIC (Staphylococcus aureus [1]) [µg/mL] | MIC (Candida albicans [5]) [µg/mL] | MIC (Escherichia coli [6]) [µg/mL] | zone of inhibition at 100 µg/disc (Staphylococcus aureus [2]) [mm] | zone of inhibition at 100 µg/disc (Escherichia coli [3]) [mm] | zone of inhibition at 100 µg/disc (Candida albicans [4]) [mm] | IC50 (NIH3T3) [µM] | zone of inhibition at 10 µg/disc (Candida albicans [7]) [mm] | zone of inhibition at 10 µg/disc (Staphylococcus aureus [8]) [mm] | zone of inhibition at 10 µg/disc (Escherichia coli [9]) [mm]
1 | COC(=O)CSc1c(-c2ccc(OC)cc2)nc2ccccc2c1-c1ccccc1 | 12.5 (≈ 30.1 µM) | 25 (≈ 60.2 µM) | 12.5 (≈ 30.1 µM) | 15 | 15 | 12 | – | – | – | –
2 | COC(=O)CSc1c(-c2cccc(Br)c2)nc2ccccc2c1-c1ccccc1 | 12.5 (≈ 26.9 µM) | 12.5 (≈ 26.9 µM) | 12.5 (≈ 26.9 µM) | 18 | 15 | 13 | 456 | – | – | –
3 | Clc1ccccc1C(c1ccccc1)(c1ccccc1)n1ccnc1 [CLOTRIMAZOLE] | – | 6.25 (≈ 18.1 µM) | – | – | – | – | – | 28 | – | –
4 | COC(=O)CSc1c(-c2ccc([N+](=O)[O-])cc2)nc2ccccc2c1-c1ccccc1 | 12.5 (≈ 29 µM) | 12.5 (≈ 29 µM) | 6.25 (≈ 14.5 µM) | 16 | 18 | 20 | – | – | – | –
5 | O=C(O)c1cn(C2CC2)c2cc(N3CCNCC3)c(F)cc2c1=O [CIPROFLOXACIN] | – | – | – | – | – | – | – | – | 25 | 28
6 | COC(=O)CSc1c(-c2cccc(Cl)c2)nc2ccccc2c1-c1ccccc1 | 12.5 (≈ 29.8 µM) | 12.5 (≈ 29.8 µM) | 12.5 (≈ 29.8 µM) | 18 | 18 | 15 | – | – | – | –
7 | COC(=O)CSc1c(-c2ccc(C)cc2)nc2ccccc2c1-c1ccccc1 | 12.5 (≈ 31.3 µM) | 12.5 (≈ 31.3 µM) | 25 (≈ 62.6 µM) | 16 | 11 | 13 | – | – | – | –
8 | COC(=O)CSc1c(-c2cccc(OC)c2)nc2ccccc2c1-c1ccccc1 | 25 (≈ 60.2 µM) | 25 (≈ 60.2 µM) | 12.5 (≈ 30.1 µM) | 15 | 15 | 15 | – | – | – | –
9 | COC(=O)CSc1c(-c2ccc(Br)cc2)nc2ccccc2c1-c1ccccc1 | 12.5 (≈ 26.9 µM) | 12.5 (≈ 26.9 µM) | 6.25 (≈ 13.5 µM) | 18 | 20 | 18 | – | – | – | –
10 | COC(=O)CSc1c(-c2ccc(Cl)cc2)nc2ccccc2c1-c1ccccc1 | 25 (≈ 59.5 µM) | 25 (≈ 59.5 µM) | 12.5 (≈ 29.8 µM) | 13 | 12 | 15 | – | – | – | –

More lines, main results first:

Row | MIC (Staphylococcus aureus [1]) [µg/mL] | MIC (Candida albicans [5]) [µg/mL] | MIC (Escherichia coli [6]) [µg/mL] | SMILES | zone of inhibition at 100 µg/disc (Staphylococcus aureus [2]) [mm] | zone of inhibition at 100 µg/disc (Escherichia coli [3]) [mm] | zone of inhibition at 100 µg/disc (Candida albicans [4]) [mm] | IC50 (NIH3T3) [µM] | zone of inhibition at 10 µg/disc (Candida albicans [7]) [mm] | zone of inhibition at 10 µg/disc (Staphylococcus aureus [8]) [mm] | zone of inhibition at 10 µg/disc (Escherichia coli [9]) [mm]
11 | 50 (≈ 98.5 µM) | 50 (≈ 98.5 µM) | 50 (≈ 98.5 µM) | O=c1oc2ccccc2cc1Sc1c(-c2ccc3ccccc3c2)nc2ccccc2c1-c1ccccc1 | < 10 | < 10 | < 10 | – | – | – | –
12 | 25 (≈ 53 µM) | 25 (≈ 53 µM) | 25 (≈ 53 µM) | Cc1ccc(-c2nc3ccccc3c(-c3ccccc3)c2Sc2cc3ccccc3oc2=O)cc1 | 10 | 13 | 12 | – | – | – | –
13 | 25 (≈ 64.9 µM) | 25 (≈ 64.9 µM) | 25 (≈ 64.9 µM) | COC(=O)CSc1c(-c2ccccc2)nc2ccccc2c1-c1ccccc1 | 15 | 15 | 10 | – | – | – | –
14 | 25 (≈ 49.7 µM) | 12.5 (≈ 24.9 µM) | 12.5 (≈ 24.9 µM) | O=c1oc2ccccc2cc1Sc1c(-c2ccc([N+](=O)[O-])cc2)nc2ccccc2c1-c1ccccc1 | 15 | 15 | 18 | – | – | – | –
15 | 25 (≈ 51.3 µM) | 25 (≈ 51.3 µM) | 25 (≈ 51.3 µM) | COc1ccc(-c2nc3ccccc3c(-c3ccccc3)c2Sc2cc3ccccc3oc2=O)cc1 | 16 | 12 | 12 | – | – | – | –
16 | 50 (≈ 115 µM) | 25 (≈ 57.4 µM) | 50 (≈ 115 µM) | COC(=O)CSc1c(-c2ccc3ccccc3c2)nc2ccccc2c1-c1ccccc1 | 10 | 10 | 10 | – | – | – | –
17 | 25 (≈ 46.8 µM) | 50 (≈ 93.7 µM) | 50 (≈ 93.7 µM) | O=c1oc2ccccc2cc1Sc1c(-c2ccc(-c3ccccc3)cc2)nc2ccccc2c1-c1ccccc1 | 10 | < 10 | 10 | – | – | – | –
18 | 25 (≈ 50.8 µM) | 25 (≈ 50.8 µM) | 25 (≈ 50.8 µM) | O=c1oc2ccccc2cc1Sc1c(-c2ccc(Cl)cc2)nc2ccccc2c1-c1ccccc1 | 12 | 12 | 15 | – | – | – | –
19 | 12.5 (≈ 23.3 µM) | 12.5 (≈ 23.3 µM) | 12.5 (≈ 23.3 µM) | O=c1oc2ccccc2cc1Sc1c(-c2ccc(Br)cc2)nc2ccccc2c1-c1ccccc1 | 18 | 18 | 20 | – | – | – | –
20 | 25 (≈ 54.2 µM) | 50 (≈ 108 µM) | 25 (≈ 54.2 µM) | COC(=O)CSc1c(-c2ccc(-c3ccccc3)cc2)nc2ccccc2c1-c1ccccc1 | 12 | 10 | 10 | – | – | – | –
21 | 25 (≈ 54.6 µM) | 25 (≈ 54.6 µM) | 25 (≈ 54.6 µM) | O=c1oc2ccccc2cc1Sc1c(-c2ccccc2)nc2ccccc2c1-c1ccccc1 | 12 | 13 | 10 | – | – | – | –
